Test results from patent US20220211698A1, “ANTI MALARIAL COMPOUNDS” (INSTITUTO DE MEDICINA MOLECULAR, priority 2020, published 2022).
Entries after “also recorded” stand apart in the source; their conditions may differ.

Assays:
PfUIS3@Pb [1] = test: Reversal of C4 effect by autophagy inhibitor, PfUIS3@Pb-infected Huh7 cells; assay type: cell-based, P. berghei expressing P. falciparum UIS3; details: 50 μM with 1 μM C4, added 2 h before infection, 24 h post-infection
Description: C4 and Chloroquine were added to the cells 2 h before infection. The effect was analysed at 24 h post-infection using flow cytometry by quantifying the EEFs number in infected cells. Data represent means±SEM. Pooled data from 4 independent experiments are presented. Statistical significance was assessed using the unpaired two-tailed t-test. *** P<0.001, **** P<0.0001.
To perform the flow cytometry analysis, Huh7 cells were seeded on a 24 well plate (50,000 cells/well) in RPMI and DMEM media respectively. The next day, media was replaced with different compounds (10 μM)/C4 (various conc.)/1 μM C4/1 μM C4+50 μM Chloroquine containing media, as appropriate in different experiments. Cells were then infected with P. bergehi/PfUIS3@Pb parasites and analysed by flow cytometry at 2 h/24 h post infection. DMSO was used as control and Primaquine was used as the positive control. For flow cytometry, infected cells were trypsinized and resuspended in 300 μl of media. 50 μl of each sample were analysed on BD Accuri C6 as described in Hanson et al. Data were analysed using FlowJo software. […]

P. berghei [2] = test: Reversal of C4 effect by autophagy inhibitor, P. berghei-infected Huh7 cells; assay type: cell-based; details: 50 μM with 1 μM C4, added 2 h before infection, 24 h post-infection
[3] = biological target: Microtubule-associated protein 1A/1B-light chain 3 (LC3), purified recombinant (UniProt Q9GZQ8); test: ITC, 100 µM LC3 titrated into 10 µM PfUIS3, 25 °C, one-site model
Solubility in DMSO = assay type: physicochemical
PfUIS3@Pb [4] = test: Immunofluorescence microscopy of EEF number and size, PfUIS3@Pb-infected Huh7 cells; assay type: cell-based, P. berghei expressing P. falciparum UIS3; details: 1 μM
Description: (§1) To assess C4 effect on EEF number and size, Huh7 cells were plated on glass coverslips (40,000/cover slip), treated with 1 μM C4 or 0.0001% DMSO (control) and after 2 h infected with P. berghei/PfUIS3@Pb sporozoites (40,000/cover slip). Huh7 cells (obtained from ATCC) were cultured under standard conditions in RPMI 1640 and DMEM medium (Gibco Invitrogen) respectively supplemented with 10% FCS, 1% glutamine, 1% non-essential amino acids (RPMI 1640), 1% penicillin/streptomycin, and 1% Hepes (RPMI 1640).
(§2) To characterize PfUIS3@Pb parasite line, Huh7 cells were seeded on cover slips as above and infected with WT (P. berghei ANKA (507cl1)/PfUIS3@Pb sporozoites (40,000/cover slip). After 24 h, cells were fixed in 4% paraformaldehyde (ChemCruz) for 15 min at room temperature (RT), permeabilized/blocked (PBS, 0.1% Triton X-100, 1% BSA) for 1 h at RT and incubated with primary antibodies (diluted in blocking solution) for overnight at 4° C. Cells were then washed with PBS, incubated with AlexaFluor-conjugated secondary antibodies (Jackson ImmunoResearch Laboratories) and Hoechst 33342 (Invitrogen) for 1 h at RT and washed again. The coverslips were mounted with Fluoromount (SouthernBiotech). […] GFP signal was detected using AlexaFluor 488 conjugated anti GFP (rabbit polyclonal, Invitrogen, A-21311, 1:500) antibody. […] All images were processed and analysed using ImageJ.

P. berghei [5] = test: P. berghei infection in Atg5+/+ and Atg5-/- mouse embryonic fibroblasts; assay type: cell-based; details: 10 μM
Description: Data represent means±SEM (n=3). Statistical significance was assessed using the unpaired two-tailed t-test. ns: non-significant, **** P<0.0001.
To test the hypothesis that high-affinity binding of C4 to the UIS3-LC3 complex could interfere with the function of the UIS3-LC3 complex to cause a decrease Plasmodium infection by interfering with the parasite's ability to evade host cell autophagy, genetic and chemicals tools were used to assess the anti-parasitic activity of C4 in autophagy-competent and autophagy-deficient cells.
MEFs used in these studies were obtained from the Riken BioResource Research Center (Atg5^+/+ (RCB2710) and Atg5^−/− (RCB2711). (Kuma et al.) MEFs were cultured in DMEM supplemented as described above for Huh7 cells. MEFs were validated through quantitative reverse transcription PCR.

P. berghei ANKA [6] = test: Immunofluorescence microscopy of EEF number and size, P. berghei-infected Huh7 cells; assay type: cell-based; details: 1 μM
Description: as §1, §2

P. berghei [7] = test: Sporozoite invasion of Huh7 cells, EEFs at 2 h post-infection by flow cytometry; assay type: cell-based; details: 1 μM, added 2 h before infection
Description: FIG. 5E is a bar graph showing the effect of 1 μM C4 on P. berghei numbers in Huh7 cells as quantified by number of EEFs at 2 h post-infection. C4 was added to the cells 2 h before infection. EEFs were quantitated using flow cytometry. Data represent means±SEM (n=3). Non-parametric two-tailed Mann-Whitney test was used to compare the effect of DMSO control and C4. ns: non-significant.
(§3) To perform the flow cytometry analysis, Huh7 cells were seeded on a 24 well plate (50,000 cells/well) in RPMI and DMEM media respectively. The next day, media was replaced with different compounds (10 μM)/C4 (various conc.)/1 μM C4/1 μM C4+50 μM Chloroquine containing media, as appropriate in different experiments. Cells were then infected with P. bergehi/PfUIS3@Pb parasites and analysed by flow cytometry at 2 h/24 h post infection. DMSO was used as control and Primaquine was used as the positive control. For flow cytometry, infected cells were trypsinized and resuspended in 300 μl of media. 50 μl of each sample were analysed on BD Accuri C6 as described in Hanson et al. Data were analysed using FlowJo software.

HeLa cells = test: Starvation-induced autophagy in HeLa cells, p62 immunoblot; assay type: cell-based; details: 1 μM for 24 h, then EBBS amino-acid starvation 7 h
Description: FIG. 8B is a bar graph showing the p62 levels before and after amino acid starvation were calculated as the ratio of p62 to y tubulin (loading control). Data represent means±SEM (n=2). Statistical significance was assessed using the unpaired two-tailed t-test. ns: non-significant.
As C4 acts on a protein-protein interaction at the host-parasite interface, the effect of C4 administration on host cell normal autophagy activity was determined. To that end, autophagy was induced in HeLa cells in the presence and absence of C4.
To perform the foregoing study, HeLa cells (ATCC), which had been maintained under standard culture conditions in DMEM medium supplemented with 10% FCS, 1% glutamine, 1% penicillin/streptomycin, were treated with 1 μM C4 or 0.0001% DMSO (control) for 24 h, and then changed from normal growth medium to EBBS to induce amino-acid starvation dependent autophagy. After 7 h, cells were collected in lysis buffer (50 mM NaCl, 50 mM Tris-Cl pH 8, 5 mM EDTA pH 8, 1% Triton X-100, protease inhibitor) and analysed by western blot using the following antibodies: p62 (rabbit polyclonal, Sigma-Aldrich, P0067, 1:1000) and gamma-tubulin (mouse monoclonal, Sigma-Aldrich, T5326, 1: 10,000). p62 levels were measured by quantifying the ratio of p62 to tubulin signals using Image Lab.

P. berghei ANKA [8] = test: P. berghei infection of Huh7 cells (luciferase parasite load / flow cytometry EEF count); assay type: cell-based
Description: (§4) The PHS was performed using Huh7 cells infected with sporozoites from either parasite lines with or without adding each of the compounds, at a concentration of 10 μM, 2 h before sporozoite addition. Infection level was determined either by measuring luminescent levels of the GFP and firefly luciferase-expressing P. berghei ANKA (676m1cl1), (obtained from the Leiden Malaria Research Group) or the number of GFP-positive infected cells by flow cytometry, representing Plasmodium exo-erythrocytic form, EEF, (as PfUIS3@Pb parasite line express GFP).
as §3
The IC50 for C4 in P. berghei ANKA-infected and PfUIS3@Pb-infected cells at 24 h. Post-infection was 93.3 nM and 188.2 nM, respectively. To analyze C4 dose-dependent effect, media were replaced with DMSO (0.0001%)/C4 (various conc.)-containing media. After 2 h, cells were infected with luciferase-expressing P. berghei sporozoites (10,000/well) and processed for Luciferase assay at 24 h post-infection. Flow cytometry was used to determine EEF counts.

UIS3-LC3 complex = UIS3-LC3 complex (Plasmodium falciparum, UniProt Q8IEU1); test: Isothermal calorimetry (ITC), C4 titrated into saturated solution of UIS3 with LC3; assay type: binding, P. falciparum
Description: ITC experiments were performed using MicroCal-ITC 200 (GE healthcare) at 25° C. The data were analyzed using MicroCal ITC-origin analysis software based on one-site binding reaction. For direct interaction studies, a 10 μM concentration of pfUIS3 was titrated against 0.100 μM of LC3. For competition assay, a saturated solution of UIS3 with LC3 was titrated against 100 μM of C4. C4 was resuspended in the same final buffer (with 2% DMSO) in which UIS3 and LC3 was dissolved.

PfUIS3@Pb [9] = test: PfUIS3@Pb infection of Huh7 cells (flow cytometry EEF count); assay type: cell-based, P. berghei expressing P. falciparum UIS3; details: 24 h post-infection
Text: The following two Plasmodium parasite strains were used in the PHS: i) the rodent wild-type (WT) GFP expressing P. berghei ANKA parasite strain (259cl2, obtained from the Leiden Malaria Research Group); and ii) the parasite line, PfUIS3@Pb, created by inserting the gene encoding P. falciparum UIS3 with an added a 2 HA tag (UIS3-HA) into the P. berghei parasite (507cl1, obtained from the Leiden Malaria Research Group) at the UIS3 locus under the control of native 5′ and 3′ regulatory sequences. More particularly, to replace the P. berghei UIS3 open reading frame (ORF) with UIS3 ORF of P. falciparum, a double crossover recombination was performed as described in FIG. 2A. Transfection was carried out by electroporation of purified schizonts as previously described. […]
as §4, with “GFP). […]” for “GFP).”

CCN(CC)CCCC(C)Nc1ccnc2cc(Cl)ccc12 (stereo not shown) [Chloroquine]
Reversal of anti-parasitic effect of C4 (EEF number) (PfUIS3@Pb [1]): can be reverted | Reversal of anti-parasitic effect of C4 (EEF number) (PfUIS3@Pb [1]; listed as chloroquine): rescued the C4 effect | Reversal of anti-parasitic effect of C4 (EEF number) (P. berghei [2]): can be reverted | Reversal of anti-parasitic effect of C4 (EEF number) (P. berghei [2]; listed as chloroquine): rescued the C4 effect

Plasmodium falciparum Upregulated in infective sporozoites 3 (UIS3), purified recombinant myc-UIS3
Kd [3]: 2150 nM

Cc1ccc(C)c(NC(=O)N2CCN(c3ccc(-c4noc(C5CCCCC5)n4)cc3)CC2)c1 [Compound C9]
Solubility in DMSO (Solubility in DMSO): insolubilities in DMSO

Cc1c/c(=N\C(=O)N2CCC3(CC2)OCCO3)nc2c3ccccc3oc(O)c1-2 [Compound C8]
Solubility in DMSO (Solubility in DMSO): insolubilities in DMSO

N#Cc1ccc(C(=O)N2CCN(Cc3ccc(-c4noc(-c5cccc(C(F)(F)F)c5)n4)cc3)CC2)cc1 [Compound C4]
Parasite development, as measured by parasite area (PfUIS3@Pb [4]): modest impact | Number of infected cells (microscopy) (PfUIS3@Pb [4]; added 2 h before infection): significant decrease | Reduction in infection in Atg5−/− MEFs (P. berghei [5]; autophagy-deficient cells): did not cause any reduction in infection | Impact on infection in Atg5+/+ MEFs (P. berghei [5]; control cells): comparable to that observed for infected Huh7 cells | Parasite development, as measured by parasite area (P. berghei ANKA [6]): modest impact | Number of infected cells (microscopy) (P. berghei ANKA [6]; added 2 h before infection): significant decrease | Effect on sporozoite invasion of host cells (P. berghei [7]): did not affect | Host cell response to exogenous autophagy stimulus (p62 levels) (HeLa cells): does not cause any impairment | Effect on infection over time (P. berghei ANKA [8]; 1 μM, from very early time-point, maintained through at least 48 h post-infection): decreased infection | Parasite load / decrease in infection in phenotypic screen (P. berghei ANKA [8]; 10 μM, added 2 h before infection, 24 h post-infection, Huh7 cells): most effective compound; also recorded: highest decrease in infection | IC50 (P. berghei ANKA [8]; Plasmodium berghei, Huh-7, P. berghei ANKA-infected Huh7 cells, 24 h post-infection, luciferase assay): 93.3 nM | Affinity to UIS3-LC3 complex relative to direct UIS3-LC3 interaction (UIS3-LC3 complex): 10 fold | Kd (UIS3-LC3 complex; 25° C., one-site binding model, 100 μM C4 into UIS3 saturated with LC3): 241 ± 1.1 nM | Number of EEFs / decrease in infection in phenotypic screen (PfUIS3@Pb [9]; 10 μM, added 2 h before infection, Huh7 cells): most effective compound; also recorded: highest decrease in infection | IC50 (PfUIS3@Pb [9]; PfUIS3@Pb-infected Huh7 cells, flow cytometry): 188 nM
